#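 Exposure lasted 48 hours, with cells grown in 96-well plates and compounds tested at five concentrations. The concentration for 50% growth inhibition is given as GI50.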 Active and inactive are the calls of the source. No stated cut-off is given here; in the data, active = GI50 up to about 1.1 µM and inactive = higher. Where a SMILES comes first, the peptide text is derived from it. [ ]: non-standard residue; d: D form. The star is where a group is joined. Phe(2-OMe) = COc1ccccc1C[CH](N)C(=O)O; Cbz = O=C(OCc1ccccc1)*; OBn = c1ccc(CO*)cc1
# Legend:
# Test in all cases: NCI anticancer screen, dose series, 48 h
# Malme-3M = test system: Malme-3M
# SR = test system: SR
# SNB-75 = test system: SNB-75
# HCC 2998 = test system: HCC 2998
# COLO 205 = test system: COLO 205
# UO-31 = test system: UO-31
# BT-549 = test system: BT-549
# UACC-257 = test system: UACC-257
# RPMI-8226 = test system: RPMI-8226
# MOLT-4 = test system: MOLT-4
# HCT-116 = test system: HCT-116
# M14 = test system: M14
# HOP-62 = test system: HOP-62
# PC-3 = test system: PC-3
# U-251 = test system: U-251
# T47D = test system: T47D
# CAKI-1 = test system: CAKI-1
# HCT-15 = test system: HCT-15
# LOX IMVI = test system: LOX IMVI
SMILES,GI50 (Malme-3M),GI50 (SR),GI50 (SNB-75),GI50 (HCC 2998),GI50 (COLO 205),GI50 (UO-31),GI50 (BT-549),GI50 (UACC-257),GI50 (RPMI-8226),GI50 (MOLT-4),GI50 (HCT-116),GI50 (M14),GI50 (HOP-62),GI50 (PC-3),GI50 (U-251),GI50 (T47D),GI50 (CAKI-1),GI50 (HCT-15) [µM],GI50 (LOX IMVI)
COC(=O)C(Cc1ccccc1OC)NC(=O)C(CC(=O)OCc1ccccc1)NC(=O)OCc1ccccc1 (stereo not given) (Cbz-Asp(OBn)-[Phe(2-OMe)]-OMe; configuration not given here),> 100 µM (inactive),27.9 µM (inactive),> 100 µM (inactive),> 100 µM (inactive),46.3 µM (inactive),64.6 µM (inactive),> 100 µM (inactive),> 100 µM (inactive),41 µM (inactive),33.7 µM (inactive),55.5 µM (inactive),> 100 µM (inactive),> 100 µM (inactive),60 µM (inactive),97.5 µM (inactive),,,,
NS(=O)(=O)c1nnc(NS(=O)(=O)c2ccccc2C(=O)O)s1,> 100 µM (inactive),> 100 µM (inactive),,> 100 µM (inactive),> 100 µM (inactive),> 100 µM (inactive),> 100 µM (inactive),> 100 µM (inactive),> 100 µM (inactive),76.7 µM (inactive),> 100 µM (inactive),> 100 µM (inactive),> 100 µM (inactive),,> 100 µM (inactive),> 100 µM (inactive),> 100 µM (inactive),> 100,> 100 µM (inactive)
COC(=O)C1=CN(C2CCCCC2)C2(c3ccccc3)c3ccccc3C(=O)OC(=O)C12 (stereo not given),> 100 µM (inactive),,> 100 µM (inactive),27 µM (inactive),72.8 µM (inactive),> 100 µM (inactive),> 100 µM (inactive),49.2 µM (inactive),,10.6 µM (inactive),64.9 µM (inactive),> 100 µM (inactive),90.8 µM (inactive),71.6 µM (inactive),99.3 µM (inactive),,46.8 µM (inactive),> 100,42.3 µM (inactive)
N#Cc1nc(-c2ccsc2)oc1N,,> 100 µM (inactive),57 µM (inactive),,,64.1 µM (inactive),,> 100 µM (inactive),77.4 µM (inactive),> 100 µM (inactive),> 100 µM (inactive),> 100 µM (inactive),> 100 µM (inactive),> 100 µM (inactive),> 100 µM (inactive),,> 100 µM (inactive),> 100,> 100 µM (inactive)
O=C1CSc2ccncc2N1,> 100 µM (inactive),> 100 µM (inactive),> 100 µM (inactive),> 100 µM (inactive),> 100 µM (inactive),> 100 µM (inactive),,> 100 µM (inactive),,> 100 µM (inactive),> 100 µM (inactive),> 100 µM (inactive),> 100 µM (inactive),,> 100 µM (inactive),,> 100 µM (inactive),> 100,> 100 µM (inactive)
C=CCN(CC=C)Cn1c(=S)sc2ccccc21,,,> 100 µM (inactive),> 100 µM (inactive),48.6 µM (inactive),38.8 µM (inactive),> 100 µM (inactive),> 100 µM (inactive),,94.8 µM (inactive),> 100 µM (inactive),> 100 µM (inactive),> 100 µM (inactive),> 100 µM (inactive),> 100 µM (inactive),,15.3 µM (inactive),45,17.8 µM (inactive)
COc1cc2c(/C=C3/C(=O)Nc4ccc(O)cc43)c(Cl)n(Cc3ccccc3)c2cc1C,0.24 µM (active),0.356 µM (active),0.979 µM (active),,1.04 µM (active),3.76 µM (inactive),,0.818 µM (active),0.687 µM (active),1.13 µM (inactive),0.421 µM (active),0.6 µM (active),,0.897 µM (active),0.69 µM (active),4.93 µM (inactive),0.408 µM (active),1.27,0.558 µM (active)
CCOc1snc(C(Cl)(Cl)Cl)c1Cl,22.2 µM (inactive),14 µM (inactive),17.7 µM (inactive),22.4 µM (inactive),18.8 µM (inactive),5.58 µM (inactive),10.7 µM (inactive),14.3 µM (inactive),15.5 µM (inactive),13.3 µM (inactive),17.3 µM (inactive),29 µM (inactive),27.4 µM (inactive),28.4 µM (inactive),27.7 µM (inactive),,12.3 µM (inactive),24.2,16.9 µM (inactive)
COc1ccc(/C=C2\N=C(SC)N(C)C2=O)cc1,,,41.6 µM (inactive),,94.6 µM (inactive),27 µM (inactive),> 100 µM (inactive),> 100 µM (inactive),50 µM (inactive),,75.2 µM (inactive),82.6 µM (inactive),96.8 µM (inactive),40.9 µM (inactive),89.7 µM (inactive),42.6 µM (inactive),,64.3,75.2 µM (inactive)
COC(=O)OCC1OC(N2C(=O)NC(=O)C(I)C2N=[N+]=[N-])CC1OC(=O)OC (stereo not given),> 100 µM (inactive),> 100 µM (inactive),> 100 µM (inactive),> 100 µM (inactive),> 100 µM (inactive),> 100 µM (inactive),,> 100 µM (inactive),> 100 µM (inactive),> 100 µM (inactive),> 100 µM (inactive),> 100 µM (inactive),> 100 µM (inactive),,> 100 µM (inactive),,> 100 µM (inactive),> 100,> 100 µM (inactive)
CCOC(=O)c1sc2c(C(=O)OCC)n3cc(C)cc(C)c3c2c1O,> 100 µM (inactive),> 100 µM (inactive),58.7 µM (inactive),> 100 µM (inactive),> 100 µM (inactive),> 100 µM (inactive),,,,> 100 µM (inactive),> 100 µM (inactive),> 100 µM (inactive),,,> 100 µM (inactive),,> 100 µM (inactive),,> 100 µM (inactive)
N=C(N)NCCCC(NC(=O)c1cccc2c(=O)c3ccccc3[nH]c12)C(=O)O (stereo not given),> 100 µM (inactive),> 100 µM (inactive),> 100 µM (inactive),,> 100 µM (inactive),> 100 µM (inactive),,,> 100 µM (inactive),> 100 µM (inactive),> 100 µM (inactive),> 100 µM (inactive),> 100 µM (inactive),> 100 µM (inactive),> 100 µM (inactive),,,> 100,> 100 µM (inactive)
CCCNC(=S)NNC(=O)CSc1nc(-c2ccccc2)c(-c2ccccc2)[nH]1,22.1 µM (inactive),29.2 µM (inactive),49.1 µM (inactive),,39 µM (inactive),30.8 µM (inactive),,45.6 µM (inactive),28.4 µM (inactive),24.2 µM (inactive),94.4 µM (inactive),24.1 µM (inactive),> 100 µM (inactive),,56.1 µM (inactive),,33.3 µM (inactive),49.3,48.2 µM (inactive)
Cn1c(=O)c2[nH]cnc2n(CC(=O)O)c1=O,> 100 µM (inactive),> 100 µM (inactive),> 100 µM (inactive),,> 100 µM (inactive),> 100 µM (inactive),,,> 100 µM (inactive),> 100 µM (inactive),> 100 µM (inactive),> 100 µM (inactive),> 100 µM (inactive),,> 100 µM (inactive),,> 100 µM (inactive),> 100,
